Where two headings read alike, the source gives them in different places.
Experiments:
human Cereblon WT = biological target: T1, human Cereblon WT (Homo sapiens, UniProt Q96SW2); experiment: Cereblon binding experiment (HTRF Human Cereblon Binding Kit, competition with XL665-labeled lenalidomide tracer); conditions: 3 h incubation at room temperature, 100% inhibition = 200 μM lenalidomide, read-out: IC50 (binding ability to Cereblon)
T1 construct: purchased
Excerpt: The detection kit (HTRF Human Cereblon Binding Kits) used in the experiment was a detection method for the quantitative measurement of Cereblon WT ligands using HTRF® technology. The detection principle was based on HTRF technology, where the specifically labeled GST antibody (Euroum Cryptate, donor) simultaneously bound to the GST-labeled human Cereblon WT ligand and the XL665-labeled lenalidomide tracer (acceptor). The donor was excited by a light source to induce fluorescence resonance energy transfer (FRET) to the acceptor, and the acceptor emitted fluorescence at a specific wavelength of 665 nm. After the addition of a compound, the compound competed with the XL665-labeled lenalidomide to prevent FRET from occurring. […]
The compounds of the present disclosure were dissolved in DMSO at a stock concentration of 10 mM. […] The HTRF signal in each well was measured using an Envision plate reader. […]
The ratio of acceptor to donor emission signals was calculated for each well: […]
(§1) Data analysis was performed by GraphPad Prism 9. The concentration-response curves were obtained using non-linear four-parameter fitting, and the IC50 for the compound was calculated: […]
The binding ability of the compounds of the present disclosure to Cereblon was determined through the above test, and the measured IC50 values were shown in Table 1.

BRD4 = biological target: T2, BRD4 (Homo sapiens, UniProt O60885); experiment: Degradation activity for BRD4 proteins in MV-4-11 cells (Western blot, 6 h); assay type: cell-based; conditions: for DC50: read-out: DC50 of BRD4 protein degradation
T2 construct: The degradation activity for BRD4 proteins in MV-4-11 cells; host or cells: MV-4-11
Experimental: The medium of MV-4-11 (CBP60522, Cobioer) was removed, and PBS was added for rinsing once, followed by digestion with trypsin (Trypsin-EDTA (0.25%)) for 5 min. After the digestion, 10 mL of a complete medium (an IMDM medium containing 10% FBS) was added to neutralize the trypsin. The cells were then pipetted and collected, centrifuged at 1000 rpm for 5 min, and counted. The cell density was adjusted to 500,000 cells/mL. 2 mL of the cell suspension was added to a 12-well plate, and the plate was incubated in a cell incubator overnight.
The compounds of the present disclosure were dissolved in DMSO at a stock concentration of 10 mM. The compound stock solution was subjected to gradient dilution (4-fold dilution), resulting in 8 concentration points. DMSO was used as the negative control group, and the DMSO content was 0.1%. After mixing the compound with the cell suspension thoroughly, the mixture was incubated at 37° C. with 5% CO2 for 6 h.
Six hours after drug treatment, the supernatant was discarded, and the cells were washed with 1000 μL of pre-cooled PBS. 100 μL of RIPA lysis buffer (25 mM Tris-HCl, pH=7.5, 150 mM NaCl, 1% NP-40, 1 mM EDTA, pH=8.0, 1 mM PMSF, 1 mM Na3VO4, and 1× Protease Inhibitor Cocktail-P2714, Sigma) was added and placed on ice for lysis for 10 min. The lysed cell samples were collected and centrifuged at 12000 rpm at 4° C. for 30 min. The concentration of each protein sample was determined using the Pierce BCA kit for protein quantification. An appropriate amount of 5×SDS-PAGE protein loading buffer was added to the collected protein samples, and the mixtures were then heated in a metal bath at 100° C. for 10 min to fully denature the proteins. The protein samples were loaded into the SDS-PAGE gel loading wells and electrophoresed at a constant voltage of 120 V for 60 min. After the electrophoresis, the gel was transferred to a PVDF membrane using a Bio-bad transfer apparatus. After the transfer, the band was cut according to the size of the target protein and blocked with 5% BSA (prepared by dissolving 5 g of BSA in 100 mL of TBST) at room temperature for 1 h. […] The proteins were detected using the SuperSignal West Atto ultra-sensitive ECL luminescent liquid.
The degradation activity for BRD4 proteins in MV-4-11 cells by the compounds of the present disclosure was determined through the above test. The gray values of the target sample bands were read using Image J software, and the protein degradation rate for each sample well was calculated based on the raw data.
[formula] • wherein: • All raw data were processed for data analysis using GraphPad Prism 9. The concentration-response curves were obtained using non-linear four-parameter fitting, and the DC50 for the compound was calculated: […]

MV-4-11 cells = experiment: Antiproliferative activity for MV-4-11 cells (CellTiter-Glo, 3 days); assay type: cell-based; conditions: Homo sapiens, MV4-11, 72 h, read-out: IC50 (antiproliferative activity for MV-4-11 cells)
Experimental: The medium of the target cells MV-4-11 (CBP60522, Cobioer) was removed, and PBS was added for rinsing once, followed by digestion with trypsin (Trypsin-EDTA (0.25%)) for 5 min. After the digestion, 10 mL of a complete medium (IMDM+10% FBS) was added to neutralize the trypsin. The cells were then pipetted and collected, centrifuged at 1000 rpm for 5 min, and counted. The cell density was adjusted to 30,000 cells/mL. 90 μL of the cell suspension was added to a 96-well low-adsorption plate. 200 μL of PBS was added to the edge wells of the 96-well plate. The plate was centrifuged at 1000 rpm for 5 min to form cell spheroids, which were then incubated in a cell incubator overnight. […]
The cells were removed from the incubator and allowed to return to room temperature within 30 min. 50 μL of the CellTiter-Glo® Cell Viability Assay reagent was added, and the plate was shaken to mix thoroughly for 10 min before it was read on the Envision microplate reader.
The antiproliferative activity of the compounds of the present disclosure for MV-4-11 cells was determined through the above test, and the cell growth inhibition rate for each sample well was calculated based on the raw data.
as §1

[1] = MV-4-11 cells, 6 h, Western blot

IC50 (human Cereblon WT) [µM]	SMILES	DC50 (BRD4; [1]) [nM]	also measured
8.7	Cn1c(=O)n(C2CCC(=O)NC2=O)c2ccc3c(c21)CNCC3 (centres unmarked) [Compound 8, 3-(1-methyl-2-oxo-1,2,6,7,8,9-hexahydro-3H-imidazo[4,5-h]isoquinolin-3-yl)piperidine-2,6-dione, reference compound]	–	–
–	Cc1sc2c(c1C)C(c1ccc(Cl)cc1)=N[C@@H](CC(=O)NCCCCCC(=O)NCc1cccc3c1ccc1c3n(C)c(=O)n1C1CCC(=O)NC1=O)c1nnc(C)n1-2 (stereo partly drawn) [Compound 3, 6-(2-((S)-4-(4-Chlorophenyl)-2,3,9-trimethyl-6H-thieno[3,2-f][1,2,4]triazolo[4,3-a][1,4]diazepin-6-yl)acetamido)-N-((3-(2,6-dioxopiperidin-3-yl)-1-methyl-2-oxo-2,3-dihydro-1H-naphtho[1,2-d]imidazol-6-yl)methyl)hexanamide]	11.2	Dmax (BRD4; MV4-11, MV-4-11 cells, 6 h, Western blot, read-out: Maximum degradation rate (%) of BRD4 protein): 74.3%; IC50 (MV-4-11 cells; MV-4-11 cells, 3 days, CellTiter-Glo): 14.1 nM
–	Cc1sc2c(c1C)C(c1ccc(Cl)cc1)=N[C@@H](CC(=O)NCCCCCC(=O)NCc1ccc3ccc4c(c3c1)n(C)c(=O)n4C1CCC(=O)NC1=O)c1nnc(C)n1-2 (stereo partly drawn) [Compound 2, 6-(2-((S)-4-(4-chlorophenyl)-2,3,9-trimethyl-6H-thieno[3,2-f][1,2,4]triazolo[4,3-a][1,4]diazepin-6-yl)acetamido)-N-((3-(2,6-dioxopiperidin-3-yl)-1-methyl-2-oxo-2,3-dihydro-1H-naphtho[1,2-d]imidazol-8-yl)methyl)hexanamide]	2.19	Dmax (BRD4; MV4-11, read-out: Maximum degradation rate (%) of BRD4 protein): 85.6%; IC50 (MV-4-11 cells): 3.8 nM
0.188	Cn1c(=O)n(C2CCC(=O)NC2=O)c2ccc3ccccc3c21 (centres unmarked) [Compound 1, 3-(1-methyl-2-oxo-1,2-dihydro-3H-naphtho[1,2-d]imidazol-3-yl)piperidine-2,6-dione]	–	–
